Results as given in ChEMBL document CHEMBL1201862, “PubChem BioAssay data set” (2004).
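Assay format: 96-well plates, 48-hour exposure. GI50 is the concentration that inhibits growth by half.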 Active and inactive are the calls of the source. Cut-off read from the data, not from the text of the source: active = GI50 up to about 1.1 µM and inactive = higher.

Legend:
Assay in all cases: growth of human tumour cells (NCI), 48 h
OVCAR-8 = tested on: OVCAR-8
NCI/ADR-RES = tested on: NCI/ADR-RES
OVCAR-3 = tested on: OVCAR-3
SR = tested on: SR
K562 = tested on: K562
SF-539 = tested on: SF-539
MDA-MB-435 = tested on: MDA-MB-435
SK-MEL-28 = tested on: SK-MEL-28
HCT-116 = tested on: HCT-116
786-0 = tested on: 786-0
SN12C = tested on: SN12C
LOX IMVI = tested on: LOX IMVI
MCF7 = tested on: MCF7
SW-620 = tested on: SW-620
Malme-3M = tested on: Malme-3M
T47D = tested on: T47D
NCI-H23 = tested on: NCI-H23
HCC 2998 = tested on: HCC 2998
SNB-75 = tested on: SNB-75

Measured: GI50

N#CC(C#N)=NNc1ccc2cn[nH]c2c1
inactive: OVCAR-8 51.4 µM | NCI/ADR-RES > 100 µM | OVCAR-3 23.9 µM | SR 22.6 µM | K562 15.7 µM | SF-539 70.8 µM | MDA-MB-435 34.3 µM | SK-MEL-28 > 100 µM | HCT-116 20.5 µM | 786-0 43.6 µM | SN12C 40.6 µM | LOX IMVI 31.4 µM | MCF7 31.1 µM | SW-620 41.1 µM | Malme-3M 28.4 µM | T47D 35.7 µM | NCI-H23 19.1 µM

CC1=C(SCc2ccccc2)C(=O)c2ccccc2C1=O
inactive: OVCAR-8 13.4 µM | NCI/ADR-RES 21.7 µM | OVCAR-3 10.5 µM | K562 3.05 µM | SF-539 14.8 µM | MDA-MB-435 14.6 µM | SK-MEL-28 19.2 µM | HCT-116 4.23 µM | 786-0 13.2 µM | SN12C 17.8 µM | LOX IMVI 17.6 µM | MCF7 14.2 µM | HCC 2998 26.7 µM | SW-620 19.9 µM | Malme-3M 15.5 µM | SNB-75 13.4 µM | T47D 3.18 µM | NCI-H23 17.9 µM

CC1(C)N=C(N)N=C(N)N1c1ccc(CCCCc2ccc(Cl)cc2Cl)cc1
active: OVCAR-8 0.598 µM | OVCAR-3 0.431 µM | SR 0.735 µM | SF-539 0.929 µM | MDA-MB-435 0.598 µM | HCT-116 0.247 µM | 786-0 0.5 µM | SN12C 0.502 µM | LOX IMVI 0.417 µM | MCF7 0.453 µM | HCC 2998 0.451 µM | SW-620 0.356 µM | Malme-3M 0.486 µM | NCI-H23 0.339 µM
inactive: NCI/ADR-RES 93.5 µM | K562 42.2 µM | SK-MEL-28 2.88 µM | T47D 1.29 µM

C[C@@H](NC(=O)Nc1cccc(C(=O)Nc2cc(C(C)(C)C)ccc2C(=O)O)n1)c1ccccc1
inactive: OVCAR-8 40.6 µM | NCI/ADR-RES > 100 µM | OVCAR-3 21.4 µM | SR 28.4 µM | K562 42.5 µM | MDA-MB-435 37.3 µM | SK-MEL-28 41.4 µM | HCT-116 19.9 µM | 786-0 37.5 µM | SN12C 49.8 µM | LOX IMVI 19.3 µM | MCF7 16.4 µM | HCC 2998 50.8 µM | SW-620 39 µM | Malme-3M 46.5 µM | SNB-75 32.1 µM | T47D 46 µM | NCI-H23 41.7 µM

Cc1ccc(C(=O)Oc2ccc(/C=C3\CCC/C(=C\c4ccc(OC(=O)c5ccc(C)cc5)cc4)C3=O)cc2)cc1
inactive: OVCAR-8 > 100 µM | NCI/ADR-RES > 100 µM | OVCAR-3 > 100 µM | SR > 100 µM | SF-539 > 100 µM | MDA-MB-435 > 100 µM | SK-MEL-28 > 100 µM | HCT-116 > 100 µM | 786-0 > 100 µM | SN12C > 100 µM | LOX IMVI > 100 µM | MCF7 > 100 µM | HCC 2998 > 100 µM | SW-620 > 100 µM | SNB-75 79.8 µM | T47D > 100 µM | NCI-H23 > 100 µM

CC1=NN(c2nc(N)nc(/C(C#N)=C/c3ccncc3)n2)C(C)(C)C1
inactive: OVCAR-8 > 100 µM | NCI/ADR-RES > 100 µM | SR 74.6 µM | K562 13.5 µM | SF-539 > 100 µM | MDA-MB-435 > 100 µM | SK-MEL-28 > 100 µM | HCT-116 > 100 µM | 786-0 > 100 µM | LOX IMVI > 100 µM | MCF7 91.8 µM | HCC 2998 > 100 µM | SW-620 > 100 µM | SNB-75 > 100 µM | T47D > 100 µM | NCI-H23 > 100 µM

Fc1cccc(F)c1C1SCC2=Nc3ccccc3CN21 (stereo not given)
inactive: NCI/ADR-RES 22.4 µM | OVCAR-3 19 µM | SR 37.8 µM | K562 92.3 µM | SF-539 26.7 µM | MDA-MB-435 > 100 µM | SK-MEL-28 > 100 µM | HCT-116 26.5 µM | 786-0 32.4 µM | SN12C > 100 µM | LOX IMVI > 100 µM | MCF7 35 µM | HCC 2998 > 100 µM | SW-620 > 100 µM | SNB-75 18.7 µM | T47D 49.7 µM | NCI-H23 39.8 µM

O=C1c2ccccc2C(=O)N1CCCCCCNOCCCN1C(=O)c2ccccc2C1=O
inactive: OVCAR-8 38.9 µM | NCI/ADR-RES 26.4 µM | OVCAR-3 23.7 µM | SR 33.4 µM | K562 29.7 µM | MDA-MB-435 25.2 µM | SK-MEL-28 55.3 µM | HCT-116 48.8 µM | 786-0 99.1 µM | SN12C > 100 µM | LOX IMVI 36.2 µM | MCF7 35.3 µM | HCC 2998 > 100 µM | SW-620 > 100 µM | Malme-3M 41.3 µM | SNB-75 25.1 µM | T47D 16.8 µM | NCI-H23 26.1 µM

CC1=NN(c2nc(N)nc(CCl)n2)C(C)(C)C1
inactive: OVCAR-8 23.9 µM | NCI/ADR-RES 14.4 µM | OVCAR-3 14.1 µM | SR 15.8 µM | K562 27.2 µM | SF-539 18.9 µM | MDA-MB-435 34.8 µM | SK-MEL-28 34.1 µM | HCT-116 25.9 µM | 786-0 5.68 µM | SN12C 30.3 µM | LOX IMVI 1.78 µM | MCF7 45 µM | HCC 2998 27.1 µM | SW-620 25.6 µM | SNB-75 24.3 µM | T47D 45.6 µM | NCI-H23 10.8 µM

COC(=O)c1ccc(OCc2ccc3nc(-c4ccccc4)c(Cl)nc3c2)cc1
inactive: OVCAR-8 48 µM | NCI/ADR-RES 65.2 µM | OVCAR-3 > 100 µM | SR > 100 µM | SF-539 33.1 µM | MDA-MB-435 74.8 µM | SK-MEL-28 > 100 µM | HCT-116 83 µM | 786-0 21 µM | SN12C > 100 µM | LOX IMVI > 100 µM | MCF7 > 100 µM | HCC 2998 > 100 µM | SW-620 > 100 µM | SNB-75 22.9 µM | T47D > 100 µM | NCI-H23 47.2 µM

CCC(=O)Nc1ccc(NC(C#N)c2cccc(Oc3ccccc3)c2)cc1 (stereo not given)
inactive: OVCAR-8 26.2 µM | NCI/ADR-RES 28.2 µM | OVCAR-3 52.4 µM | SR 18.2 µM | K562 27.5 µM | SF-539 32.9 µM | MDA-MB-435 35.5 µM | SK-MEL-28 53.3 µM | HCT-116 34.5 µM | 786-0 35.5 µM | SN12C 51.8 µM | LOX IMVI 21.4 µM | MCF7 35.2 µM | SW-620 38.7 µM | Malme-3M 26.1 µM | SNB-75 42 µM | T47D 42.3 µM | NCI-H23 45.2 µM

CCOC(=O)Nc1cc2c(c(N)n1)N=C(c1ccc(OC)cc1)CN2
active: OVCAR-8 0.000895 µM | NCI/ADR-RES 0.00126 µM | OVCAR-3 0.00044 µM | SR < 0.0001 µM | K562 < 0.01 µM | MDA-MB-435 < 0.0001 µM | SK-MEL-28 0.0057 µM | HCT-116 0.000251 µM | 786-0 0.00363 µM | SN12C 0.00436 µM | LOX IMVI 0.000315 µM | MCF7 0.00434 µM | HCC 2998 0.000925 µM | SW-620 < 0.0001 µM | Malme-3M 0.0101 µM | SNB-75 0.000188 µM | T47D 0.582 µM | NCI-H23 0.0692 µM

CN(C)/C=C1\CCc2ccc([N+](=O)[O-])cc2C1=O
inactive: OVCAR-8 45.7 µM | NCI/ADR-RES 75 µM | OVCAR-3 18.3 µM | SR 31 µM | K562 24.4 µM | MDA-MB-435 19.1 µM | SK-MEL-28 > 100 µM | HCT-116 17.9 µM | 786-0 48.6 µM | SN12C 18.3 µM | LOX IMVI 19.6 µM | MCF7 26 µM | HCC 2998 70.8 µM | SW-620 32.1 µM | Malme-3M 33 µM | SNB-75 > 100 µM | T47D 26.7 µM | NCI-H23 53.6 µM

Cn1nc2c(c1N)Cc1c(nn(C)c1N)-c1ccccc1-2
inactive: OVCAR-8 > 100 µM | NCI/ADR-RES > 100 µM | OVCAR-3 > 100 µM | SR > 100 µM | K562 > 100 µM | SF-539 > 100 µM | MDA-MB-435 > 100 µM | SK-MEL-28 > 100 µM | HCT-116 > 100 µM | 786-0 > 100 µM | SN12C > 100 µM | LOX IMVI > 100 µM | MCF7 > 100 µM | HCC 2998 > 100 µM | SW-620 > 100 µM | Malme-3M > 100 µM | T47D > 100 µM | NCI-H23 > 100 µM

CN(C)CCNC(=O)Cn1ccc(=O)c2cc([N+](=O)[O-])ccc21
inactive: NCI/ADR-RES > 100 µM | OVCAR-3 > 100 µM | SR > 100 µM | K562 > 100 µM | SF-539 > 100 µM | MDA-MB-435 > 100 µM | SK-MEL-28 > 100 µM | HCT-116 > 100 µM | 786-0 > 100 µM | SN12C > 100 µM | LOX IMVI > 100 µM | MCF7 > 100 µM | HCC 2998 > 100 µM | SW-620 > 100 µM | Malme-3M > 100 µM | T47D > 100 µM | NCI-H23 > 100 µM

CCOC(=O)c1c(CN2CCCC2)n(-c2ccccc2)c2cc(Br)c(O)cc12
inactive: OVCAR-8 22.9 µM | NCI/ADR-RES 22.4 µM | OVCAR-3 15.9 µM | SR 18.7 µM | K562 18.3 µM | MDA-MB-435 18 µM | SK-MEL-28 15.1 µM | HCT-116 16 µM | 786-0 16.7 µM | SN12C 16.4 µM | LOX IMVI 16 µM | MCF7 21 µM | SW-620 17.7 µM | Malme-3M 19.5 µM | SNB-75 15.3 µM | T47D 20.7 µM | NCI-H23 19.3 µM
